Assay results: patent US9586969B2, “Microbiocidal heterobicyclic derivatives” (Syngenta Participations AG, priority 2014, dated 2017)
Read-outs that look alike come from different tables or passages of the source.

Tests used:
[1] = tested on: Glomerella lagenarium (Colletotrichum lagenarium); assay: Glomerella lagenarium (Colletotrichum lagenarium) / liquid culture (Anthracnose); assay type: cell-based; conditions: Colletotrichum orbiculare; 200 ppm; liquid culture, 24° C., inhibition of growth measured photometrically 3-4 days after application; vs untreated control; read-out: disease control
[2] = tested on: Botryotinia fuckeliana (Botrytis cinerea); assay: Botryotinia fuckeliana (Botrytis cinerea) / liquid culture (Gray mould); assay type: cell-based; conditions: 72 h, 200 ppm, liquid culture, 24° C., inhibition of growth determined photometrically 3-4 days after application, vs untreated control, read-out: disease control
Gaeumannomyces graminis = Gaeumannomyces graminis / liquid culture (Take-all of cereals); assay type: cell-based; conditions: 96 h, read-out: disease control
[3] = tested on: Monographella nivalis (Microdochium nivale); assay: Monographella nivalis (Microdochium nivale) / liquid culture (Foot rot cereals); assay type: cell-based; conditions: 96 h, 200 ppm, liquid culture, 24° C., inhibition of growth determined photometrically 4-5 days after application, vs untreated control, read-out: disease control
Fusarium culmorum = assay: microbe, parasite or virus in culture; assay type: cell-based; conditions: 72 h, read-out: disease control
[4] = tested on: Mycosphaerella graminicola (Septoria tritici); assay: Mycosphaerella graminicola (Septoria tritici) / liquid culture (Septoria blotch); assay type: cell-based; conditions: Zymoseptoria tritici, 96 h, read-out: disease control
[5] = liquid culture, 24° C., inhibition of growth determined photometrically 4-5 days after application, vs untreated control

CC1(C)N=C(c2cnn3cccc3c2)c2cccc(F)c2C1(C)C [E 1]
inhibition of growth at 200 ppm [1]: ≥ 80%
inhibition of growth at 200 ppm [2]: ≥ 80%
inhibition of growth at 200 ppm (Gaeumannomyces graminis; [5]): ≥ 80%
inhibition of growth at 200 ppm [3]: ≥ 80%

CC1(C)N=C(c2cnn3c(F)ccc3c2)c2cccc(F)c2C1(C)C [E 2]
inhibition of growth at 200 ppm (Fusarium culmorum): ≥ 80%
inhibition of growth at 200 ppm [1]: ≥ 80%
inhibition of growth at 200 ppm [2]: ≥ 80%
inhibition of growth at 200 ppm (Gaeumannomyces graminis; [5]): ≥ 80%
inhibition of growth at 200 ppm [3]: ≥ 80%

CC1(C)Cc2c(F)cccc2C(c2cnn3cccc3c2)=N1 [E 3]
inhibition of growth at 200 ppm (Fusarium culmorum): ≥ 80%
inhibition of growth at 200 ppm [1]: ≥ 80%
inhibition of growth at 200 ppm [2]: ≥ 80%
inhibition of growth at 200 ppm [4, 5]: ≥ 80%
inhibition of growth at 200 ppm (Gaeumannomyces graminis; [5]): ≥ 80%
inhibition of growth at 200 ppm [3]: ≥ 80%

CC1(C)Cc2c(Br)cccc2C(c2cnn3cccc3c2)=N1 [E 5]
inhibition of growth at 200 ppm (Fusarium culmorum): ≥ 80%
inhibition of growth at 200 ppm [1]: ≥ 80%
inhibition of growth at 200 ppm [2]: ≥ 80%
inhibition of growth at 200 ppm [4, 5]: ≥ 80%
inhibition of growth at 200 ppm [3]: ≥ 80%

CC1(C)Cc2c(F)cccc2C(c2cnn3c(F)cc(Br)c3c2)=N1 [E 15]
inhibition of growth at 200 ppm [1]: ≥ 80%
inhibition of growth at 200 ppm [2]: ≥ 80%
inhibition of growth at 200 ppm [4, 5]: ≥ 80%
inhibition of growth at 200 ppm (Gaeumannomyces graminis; [5]): ≥ 80%
inhibition of growth at 200 ppm [3]: ≥ 80%

CC1(C)Cc2c(F)cccc2C(c2cnn3c(Br)ccc3c2)=N1 [E 17]
inhibition of growth at 200 ppm [1]: ≥ 80%
inhibition of growth at 200 ppm [2]: ≥ 80%
inhibition of growth at 200 ppm (Gaeumannomyces graminis; [5]): ≥ 80%
inhibition of growth at 200 ppm [3]: ≥ 80%

Cc1cc(F)n2ncc(C3=NC(C)(C)Cc4c(F)cccc43)cc12 [E 18]
inhibition of growth at 200 ppm [1]: ≥ 80%
inhibition of growth at 200 ppm [2]: ≥ 80%
inhibition of growth at 200 ppm [4, 5]: ≥ 80%
inhibition of growth at 200 ppm (Gaeumannomyces graminis; [5]): ≥ 80%
inhibition of growth at 200 ppm [3]: ≥ 80%

CC1(C)Cc2ccccc2C(c2cnn3c(F)ccc3c2)N1 (stereo not shown) [E 21]
inhibition of growth at 200 ppm [1]: ≥ 80%
inhibition of growth at 200 ppm [2]: ≥ 80%
inhibition of growth at 200 ppm (Gaeumannomyces graminis; [5]): ≥ 80%

CC1(C)N=C(c2cnn3c(F)cc(I)c3c2)c2cccc(F)c2C1(C)C [E 24]
inhibition of growth at 200 ppm (Fusarium culmorum): ≥ 80%
inhibition of growth at 200 ppm [1]: ≥ 80%
inhibition of growth at 200 ppm [2]: ≥ 80%
inhibition of growth at 200 ppm [4, 5]: ≥ 80%
inhibition of growth at 200 ppm [3]: ≥ 80%

C#Cc1cccc2c1CC(C)(C)N=C2c1cnn2c(F)ccc2c1 [E 27]
inhibition of growth at 200 ppm (Fusarium culmorum): ≥ 80%
inhibition of growth at 200 ppm [1]: ≥ 80%
inhibition of growth at 200 ppm [2]: ≥ 80%
inhibition of growth at 200 ppm [4, 5]: ≥ 80%
inhibition of growth at 200 ppm (Gaeumannomyces graminis; [5]): ≥ 80%
inhibition of growth at 200 ppm [3]: ≥ 80%

CC1(C)Cc2c(I)cccc2C(c2cnn3cccc3c2)=N1 [E 29]
inhibition of growth at 200 ppm (Fusarium culmorum): ≥ 80%
inhibition of growth at 200 ppm [1]: ≥ 80%
inhibition of growth at 200 ppm [2]: ≥ 80%
inhibition of growth at 200 ppm [4, 5]: ≥ 80%
inhibition of growth at 200 ppm [3]: ≥ 80%

CC1(C)Cc2c(F)cccc2C(c2cnn3c(C#N)ccc3c2)=N1 [E 30, 3-(5-fluoro-3,3-dimethyl-4H-isoquinolin-1-yl)pyrrolo[1,2-b]pyridazine-7-carbonitrile]
inhibition of growth at 200 ppm (Fusarium culmorum): ≥ 80%
inhibition of growth at 200 ppm [1]: ≥ 80%
inhibition of growth at 200 ppm [2]: ≥ 80%
inhibition of growth at 200 ppm [4, 5]: ≥ 80%
melting point: 118 to 136 °C
inhibition of growth at 200 ppm (Gaeumannomyces graminis; [5]): ≥ 80%
inhibition of growth at 200 ppm [3]: ≥ 80%

CC1(C)Cc2c(Oc3ccccn3)cccc2C(c2cnn3cccc3c2)=N1 [E 31]
inhibition of growth at 200 ppm [2]: ≥ 80%
inhibition of growth at 200 ppm (Gaeumannomyces graminis; [5]): ≥ 80%

CC1(C)N=C(c2cnn3c(I)cc(I)c3c2)c2cccc(F)c2C1(C)C [E 38]
inhibition of growth at 200 ppm [2]: ≥ 80%
inhibition of growth at 200 ppm [4, 5]: ≥ 80%
inhibition of growth at 200 ppm [3]: ≥ 80%

CC1(C)N=C(c2cnn3c(Br)ccc3c2)c2cccc(F)c2C1(C)C [E 42]
inhibition of growth at 200 ppm (Fusarium culmorum): ≥ 80%
inhibition of growth at 200 ppm [1]: ≥ 80%
inhibition of growth at 200 ppm [2]: ≥ 80%
inhibition of growth at 200 ppm (Gaeumannomyces graminis; [5]): ≥ 80%
inhibition of growth at 200 ppm [3]: ≥ 80%

C#CCOc1cccc2c1CC(C)(C)N=C2c1cnn2cccc2c1 [E 54]
inhibition of growth at 200 ppm [2]: ≥ 80%
inhibition of growth at 200 ppm (Gaeumannomyces graminis; [5]): ≥ 80%

CC1(C)Cc2c(Oc3ccccc3)cccc2C(c2cnn3cccc3c2)=N1 [E 60]
inhibition of growth at 200 ppm (Fusarium culmorum): ≥ 80%
inhibition of growth at 200 ppm [1]: ≥ 80%
inhibition of growth at 200 ppm [2]: ≥ 80%
inhibition of growth at 200 ppm [4, 5]: ≥ 80%
inhibition of growth at 200 ppm [3]: ≥ 80%

CC1(C)N=C(c2cnn3c(C#N)cc(Br)c3c2)c2cccc(F)c2C1(F)F [E 64, 5-bromo-3-(4,4,5-trifluoro-3,3-dimethyl-1-isoquinolyl)pyrrolo[1,2-b]pyridazine-7-carbonitrile]
melting point: 190 to 192 °C

CC1(C)N=C(c2cnn3c(C#N)ccc3c2)c2cccc(F)c2C1(F)F [E 66, 3-(4,4,5-trifluoro-3,3-dimethyl-1-isoquinolyl)pyrrolo[1,2-b]pyridazine-7-carbonitrile]
inhibition of growth at 200 ppm (Fusarium culmorum): ≥ 80%
inhibition of growth at 200 ppm [1]: ≥ 80%
inhibition of growth at 200 ppm [2]: ≥ 80%
melting point: 214 to 216 °C
inhibition of growth at 200 ppm [3]: ≥ 80%

CC1(C)N=C(c2cnn3c(F)c(F)cc3c2)c2cccc(F)c2C1(C)C [E 75]
inhibition of growth at 200 ppm (Fusarium culmorum): ≥ 80%
inhibition of growth at 200 ppm [1]: ≥ 80%
inhibition of growth at 200 ppm [2]: ≥ 80%
inhibition of growth at 200 ppm (Gaeumannomyces graminis; [5]): ≥ 80%

CC1(C)N=C(c2cnn3c(Cl)ccc3c2)c2cccc(F)c2C1(C)C [E 76]
inhibition of growth at 200 ppm (Fusarium culmorum): ≥ 80%
inhibition of growth at 200 ppm [4]: ≥ 80%
inhibition of growth at 200 ppm (Gaeumannomyces graminis): ≥ 80%

Cc1nn2cccc2cc1C1=NC(C)(C)C(C)(C)c2c1ccc(F)c2F [E 80]
inhibition of growth at 200 ppm (Fusarium culmorum): ≥ 80%
inhibition of growth at 200 ppm [1]: ≥ 80%
inhibition of growth at 200 ppm [2]: ≥ 80%
inhibition of growth at 200 ppm [3]: ≥ 80%

Cc1nn2c(Br)ccc2cc1C1=NC(C)(C)C(C)(C)c2c(F)cccc21 [E 84]
inhibition of growth at 200 ppm (Fusarium culmorum): ≥ 80%
inhibition of growth at 200 ppm [1]: ≥ 80%
inhibition of growth at 200 ppm [2]: ≥ 80%
inhibition of growth at 200 ppm (Gaeumannomyces graminis; [5]): ≥ 80%
inhibition of growth at 200 ppm [3]: ≥ 80%

Cc1cnc2cc(C3=NC(C)(C)C(F)(F)c4c(F)cccc43)cnn12 [E 90]
inhibition of growth at 200 ppm (Fusarium culmorum): ≥ 80%
inhibition of growth at 200 ppm [1]: ≥ 80%
inhibition of growth at 200 ppm [2]: ≥ 80%
inhibition of growth at 200 ppm [3]: ≥ 80%
